The source of these data is publication PMC9994102, “A fluorescent photoaffinity probe for formyl peptide receptor 1 labelling in living cells†” (RSC Chemical Biology, 2023).

The subject of test [1] is FPR1. The arrangement: method as in 4 sources, ref [17] = [17]; PMID 18312550; doi:10.1111/j.1747-0285.2008.00646.x; Wittelsberger A. Mierke D. F. Rosenblatt M. Mapping ligand-receptor interfaces: approaching the resolution limit of benzophenone-based photoaffinity scanning Chem. Biol. Drug Des. 2008 71 4 380 383 10 ||| ref [20] = [20]; PMID 472759; doi:10.1126/science.472759; Niedel J. E. Kahane I. Receptor-Mediated Internalisation of Fluorescent Chemotactic Peptide by Human Neutrophils Science 1979 205 1412 1414 10.1126/science.472759 472759 ||| ref [21] = [21]; PMID 15209517; doi:10.1021/bi035335i; Waller A. Sutton K. L. Kinzer-Ursem T. L. Absood A. Traynor J. R. Linderman J. J. Omann G. M. Receptor binding kinetics and cellular responses of six N-formyl peptide agonists in human neutrophils Bio ||| ref [30] = [30]; PMID 19006074; doi:10.1002/cyto.a.20670; Strouse J. J. Young S. M. Mitchell H. D. Ye R. D. Prossnitz E. R. Sklar L. A. Edwards B. S. A novel fluorescent cross-reactive formylpeptide receptor/formylpeptide receptor-like 1 hexapeptide ligand C. The settings on record: cited from earlier work; for binding to FPR1: ref [20].

For test [2], the system named is FPR1. The following applies: ref [20]; cited from earlier work. The protocol: Upon agonist binding, FPR1 internalises following activation of G protein subunits, resulting in receptor desensitisation.[20] […] Upon heating to 37 °C, fluorescent material was ob ...
Test [3] deals with FPR1 (FPR1-HEK293T cells). Nature of the test: flow cytometry competition of probe-TAMRA with known ligands. Type of test: binding. The following applies: probe-TAMRA 10 nM. (A flow cytometer gives signals particle by particle.)
Procedure: (§1) Cells were incubated in a humidified atmosphere at 37 °C containing 5% CO2. HEK293T cells were cultured in Dulbecco’s Modified Eagle Medium (DMEM, Fisher) supplemented with 1% L-glutamine, 10% v/v fetal bovine serum (FBS) and 1% v/v Pen-Strep. Cells were detached using 1  trypsin in PBS.
HEK293T cells were seeded in a 6-well plate (2 × 10^5 cells/well) and incubated at 37 °C overnight. The plasmid containing FPR1 gene (0.7 µg/µL stock) and Turbofect (Fisher) were mixed with DMEM (no FBS) and incubated at room temperature for 15 min (1 µg of plasmid and 3 µL of Turbofect in 100 µL of media per well). The solution was added to the plated cells and incubated at 37 °C overnight. For mock transfection, the plasmid was omitted. […]
concentrations of 5 µM, 20 µM, 5 µM respectively) or DMSO for 30 min on ice (final DMSO concentration of 2%). […] Membranes were resuspended in 25 µL PBS, irradiated for 30 s at 365 nm, deglycosylated as described in section 2.6, and then analysed by SDS-PAGE.
Crosslinked cell lysate samples were analysed using gel-based fluorescent imaging. […] Fluorescence was measured using a BioRad ChemiDoc MP Imaging System with a Cy3 filter. […]
Test [4] relates to FPR1 (crude membrane fraction of transfected HEK293T cells). As to the kind of experiment: gel-based competition of probe-TAMRA labelling in membrane fraction. Type of test: binding. The following applies: 50 nM probe-TAMRA, 30 min on ice, 2% DMSO, 365 nm 30 s, PNGaseF.
Procedure: (a) UV-dependent crosslinking analysed by gel and western blot. […] Following cell lysis, samples were separated by SDS-PAGE and analysed by in-gel fluorescence (550 nm emission) and anti-FLAG western blot. Ponceau staining was used to assess protein loading. […] Probes were used at a concentration of 10 nM. Samples were washed twice before analysis and 10,000 cells were measured per sample. […] HEK293T cells transfected with FPR1 or mock transfected were suspended, lysed by sonication and membrane fraction isolated by centrifugation. […] Proteins were deglycosylated with PNGaseF, separated by SDS-PAGE and analysed by in-gel fluorescence (550nm emission). The gel was Coomassie stained to provide evidence of equal protein loading.
as §1
HEK293T cells were seeded in a 6-well plate (2 × 10^5 cells/well) and incubated at 37 °C overnight. The plasmid containing FPR1 gene (0.7 µg/µL stock) and Turbofect (Fisher) were mixed with DMEM (no FBS) and incubated at room temperature for 15 min (1 µg of plasmid and 3 µL of Turbofect in 100 µL of media per well). The solution was added to the plated cells and incubated at 37 °C overnight. For mock transfection, the plasmid was omitted.
For 10 cm plate transfection for lysate preparation, the following modifications were used: 1.6×10^6 cells were seeded per plate; 8 µg plasmid and 24 µL Turbofect were mixed in 800 µL DMEM.
Transfected cells were washed with PBS and incubated in 1 mL of PBS with EDTA (per well) at 37 °C for 3 min to detach. The cells were then transferred into sterile Eppendorf tubes and centrifuged at 2000 rpm for 3 min at 4 °C to form pellets. Subsequently the cells were incubated with 1 mL of 10 nM probe in PBS at 0 °C for 30 min. […] Protein concentration was determined by the DC protein assay (Bio-Rad) using BSA to generate a standard curve. […]
For test [5], the target named is T1, FPR1 (FLAG-tagged, transiently transfected HEK293T cells) (Homo sapiens, UniProt P21462).
T1 construct: host or cells: HEK293T, transient transfection with Turbofect
T1 sequence (P21462 1-350): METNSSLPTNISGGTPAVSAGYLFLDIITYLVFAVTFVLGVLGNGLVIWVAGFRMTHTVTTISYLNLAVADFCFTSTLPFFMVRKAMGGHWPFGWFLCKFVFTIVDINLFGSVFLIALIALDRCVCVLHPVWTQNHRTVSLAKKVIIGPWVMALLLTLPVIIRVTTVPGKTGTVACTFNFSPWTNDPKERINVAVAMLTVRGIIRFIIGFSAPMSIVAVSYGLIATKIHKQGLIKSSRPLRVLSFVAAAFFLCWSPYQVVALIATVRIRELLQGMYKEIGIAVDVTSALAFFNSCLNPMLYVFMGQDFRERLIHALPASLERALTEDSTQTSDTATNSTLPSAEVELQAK
Nature of the test: flow cytometry binding to FPR1-transfected HEK293T cells. The following applies: 10 nM; 10 000 cells per sample. The method, then:
Fig. 2 Evaluation of probe-TAMRA as a ligand for FPR1 by flow cytometry. Histograms of FPR1-transfected (+FPR1) or mock-transfected (mock) HEK293T cells incubated with Tracer-FITC (a) or probe-TAMRA (b) each at 10 nM at the indicated wavelengths. 10 000 cells measured per sample. (c) Plot of mean fluorescence intensity determined from flow cytometry analysis following incubation with increasing concentrations of probe-TAMRA with transfected (blue) or mock transfected (grey) cells. Data from 3 biological replicates; error bars represent standard error of the mean. Black curve is subtraction of background binding (grey curve) from blue curve and represents specific binding. (d) Dot plot from incubation of transfected cells with Tracer-FITC alone (cyan), probe-TAMRA alone (blue), or co-incubation of probe and tracer (red). All peptides at 10 nM. (e) Plot of percentage maximum fluorescence at 525 nm (FITC) and 585 nm (TAMRA) wavelengths from a flow cytometry competition experiment in which Tracer-FITC was held constant at a concentration of 10 nM and the concentration of probe-TAMRA increased from 0–200 nM. […]
Transfected cells were washed with PBS and incubated in 1 mL of PBS with EDTA (per well) at 37 °C for 3 min to detach. […] Protein concentration was determined by the DC protein assay (Bio-Rad) using BSA to generate a standard curve. […]

Test [6] has as its target T2, Formyl peptide receptor 1, C-terminally FLAG-tagged (UniProt P21462 1-350).
T2 construct: Formyl peptide receptor 1 (FPR1); Glycosylated in HEK293T (diffuse band that sharpens with PNGaseF); also called FPR1; FLAG-tagged FPR1; source: HEK293T, transiently transfected; on living cells, in lysate (sonication) or in a crude membrane fraction; not shown: FLAG, C-terminal, kept
T2 sequence (looked up): T1 sequence (P21462 1-350)
Nature of the test: flow cytometry on cells; FPR1-transfected or mock-transfected HEK293T cells incubated with the fluorescent peptide (10 nM; probe-TAMRA titrated 0-200 nM); background of mock-transfected cells subtracted; 3 biological replicates. The following applies: one partner purified.

Square brackets hold non-standard residues; d marks the D form. * marks the point of attachment. FITC = O=C1OC2(c3ccc(O)cc3Oc3cc(O)ccc32)c2ccc(NC(=S)*)cc21; Abu(3-Me-diazirin-3-yl) = CC1(CC[C@H](N)C(=O)O)N=N1; Nle = CCCC[C@H](N)C(=O)O; For = O=C*

In the case of “formyl-Nle-Leu-Phe-Nle-Tyr-Lys(TAMRA)-OH [TAMRA version of the tracer]”, the “binding to FPR1” value in test [1] is “low nM binding to FPR1”. In addition, in test [2], the “internalisation (literature)” value is on record as “receptor internalisation”.

fMLF: in test [1] (ref [21]), the “KD of tripeptide (reported, words)” value is reported as “nM range”. For the same molecule, in test [3], the “concentration at which competition of probe-TAMRA binding observed” value is on record as “greater than 5 μM”. In addition, the “inhibition of probe-TAMRA labelling” value in test [4] (5 μM competitor) is reported as “incomplete inhibition”.

The Kd is the free concentration of one partner at which half of the binding sites on the other are occupied at equilibrium, for simple one-to-one binding. Regarding “For-[Nle]LF[Nle]YK(FITC)-OH [Tracer-FITC]”, the equilibrium dissociation constant (Kd) in test [1] (ref [17], read-out: reported KD) was approximately 3 nM. Also, the “binding to FPR1” value in test [1] is given as “low nM binding to FPR1”. For the same molecule, the “fluorescence shift in flow cytometry” value in test [5] was “clear shift to a population of fluorescent cells with minimal background binding in mock-transfected cells”.

For Boc-MLF, the “concentration at which competition of probe-TAMRA binding observed” value in test [3] was 10 to 50 µM. The “inhibition of probe-TAMRA labelling” value in test [4] (20 μM competitor) is given as “incomplete inhibition”.

With fMLFF, the “potency as reported” value in test [1] (ref [30]) is given as “more potent”. In addition, the “inhibition of probe-TAMRA labelling” value in test [4] (5 μM competitor) is on record as “complete inhibition”.

For For-[Abu(3-Me-diazirin-3-yl)]LF[Nle]YK(5(6)‑TAMRA)-OH [probe-TAMRA], the Kd in test [6] was determined as 3.5 ± 0.9 nM.
